Results from patent US20230056205A1, “SUBSTITUTED 4,6-DIHYDROSPIRO[[1,2,3]TRIAZOLO[4,5-B]PYRIDINE-7,3'-INDOLINE]-2',5(3H)-DIONE ANALOGUES” (The Board of Regents of The University of Texas System, priority 2019, published 2023).
“Also recorded” adds a separate entry of the source.

Experiments:
in vivo = format: in vivo, male SD rats
Protocol: In Vivo PK Studies. The PK profiles of compound 15 were determined in male SD rats following intravenous (i.v.) and oral (p.o.) administration of 10 and 20 mg/kg, respectively. The formulations used for i.v. and p.o. were solution in DMSO: 20% HP-β-CD in saline = 1:9. IV bolus injection, animal number N = 3; dose level: 10 mg/kg; sample collection time points: 5 min, 15 min, 30 min, 1 h, 2 h, 4 h, 8 h, 24 h; PO: animal number N = 3; fasting 12 h, dose level: 20 mg/kg; sample collection time points: 15 min, 30 min, 1 h, 2 h, 4 h, 8 h, 24 h. Plasma concentrations of compound 15 were measured by API-4000/5500 LC-MS/MS with 8 point standard curve and 6 QCs. Pharmacokinetic parameters were calculated by a non-compartmental approach using WinNonLin software.

[1] = system: P12 resistant DENV-2 viruses (NS4B V63M or V63L); format: cell-based, DENV-2 strain NGC
DENV-2 replicon = assay: Luciferase reporter replicon-based screening, DENV-2; format: cell-based, DENV-2 (New Guinea C strain, NGC); settings: for EC50: Dengue virus, DENV2, Huh-7, 48 h, read-out: EC50 DENV-2, Huh7 cells stably expressing DENV-2 replicon, 48 h
In short: (§1)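 Huh7 cells carrying Renilla luciferase/neo replicons of DENV-1 (WestPac), DENV-2 (NGC), DENV-3 (D3MY05-34640) or DENV-4 (D4MY01-22713), treated with 2-fold compound dilutions for 48 h at 37 °C in duplicate. Live-cell luciferase read; EC50 by four-parameter logistic fit.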

DENV-4 replicon = assay: Luciferase reporter replicon-based screening, DENV-4; format: cell-based, DENV-4 (strain D4MY01-22713)
In short: as §1

DENV-3 replicon = assay: Luciferase reporter replicon-based screening, DENV-3; format: cell-based, DENV-3 (strain D3MY05-34640); settings: for EC50: Dengue virus, DENV3, Huh-7, 48 h, read-out: EC50 DENV-3, Huh7 cells stably expressing DENV-3 replicon, 48 h
In short: as §1

DENV-1 replicon = assay: Luciferase reporter replicon-based screening, DENV-1; format: cell-based, DENV-1 (strain WestPac)
In short: as §1

DENV-2 strain NGC = assay: Viral titer reduction assay, DENV-2 strain NGC; format: cell-based; settings: Dengue virus, DENV2, Huh-7; viral titer reduction assay on Huh7 cells
Protocol: Viral Titer Reduction Assay. Huh7 cells were seeded in a 96-well plate. The next day, cells were infected with DENV-2 strains NGC or D2Y98P at a MOI of 0.3 in the presence of 2-fold serial dilutions of compounds. Experiments were performed in triplicates. After incubation at 37° C. for 48 h, cell culture fluids were harvested. The infectious viruses in the culture fluids were determined by plaque assay using a protocol as described previously.^48 The EC50 values were calculated using four parameter logistic regression in GraphPad software Prism 8.0.

[2] = Cytotoxicity assay (CellTiter-Glo); format: cell-based; settings: human, Huh7 cells stably expressing DENV-2 replicon
In short: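 Huh7 or Huh7 replicon cells, seeded overnight at 37 °C, exposed to 2-fold serial dilutions of compound for 48 h in duplicate. Viability by CellTiter-Glo, normalised to 0.45% DMSO wells (100%); CC50 by four-parameter logistic regression.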

[3] = target: T1, DENV-2 viral NS4B protein (Dengue virus type 2, UniProt P14340); assay: Pull-down assay with biotinylated compounds; format: binding, DENV-2 strain NGC; settings: lysates of DENV-2 infected Huh7 cells, streptavidin beads, Western blot
T1 construct: endogenous in cells; host or cells: Huh7 cells infected with DENV-2 strain NGC (virus-encoded protein in the lysate)
Protocol: Pull-Down Assay. 4 × 10^6 Huh7 cells were seeded in a T-75 flask. The next day, cells were infected with DENV-2 strain NGC at a MOI of 2.0 in the presence of 10 µM compound 73 or 75. Cells treated with 0.25% DMSO were used as a control. After 48 h-incubation at 37° C., cells were harvested and lysed in 500 µL lysis buffer comprising 20 mM Tris-HCL pH 7.5, 100 mM NaCl, 0.5% DDM, and EDTA-free protease inhibitor cocktail (Roche). After removing the cell debris by centrifugation at 15000 rpm for 10 min, the lysates were mixed with corresponding compound at a final concentration of 100 µM or DMSO (0.25%) prior to incubation with 80 µL Streptavidin Magnetic Beads (ThermoFisher Scientific). After incubation at 4° C. overnight with agitation, the beads were washed 5 times with PBST buffer (PBS containing 0.1% Tween 20). The beads were finally mixed with 1 × LDS sample buffer (ThermoFisher Scientific) containing 100 mM dithiothreitol (DTT, Sigma-Aldrich) and heated at 95° C. for 10 minutes to elute the bead-associated proteins. The eluates and cell lysates were loaded onto a 12% SDS-PAGE and viral NS4B proteins were detected by a mouse monoclonal antibody according to the protocol as reported previously.^56

[4] = at the concentration up to 10 µM (data not shown)

CC(C)CCN1C(=O)[C@]2(CC(=O)Nc3c2nnn3[C@@H](C)c2ccc(Cl)cc2)c2cc(Cl)ccc21 [Compound 15, (R)-5'-Chloro-3-((S)-1-(4-chlorophenyl)ethyl)-1'-isopentyl-4,6-dihydrospiro[[1,2,3]triazolo[4,5-b]pyridine-7,3'-indoline]-2ʹ,5(3H)-dione]
AUC0- ∞ (in vivo; iv 10 mg/kg, rat plasma): 10,334 ng·h/mL
CL (in vivo; iv 10 mg/kg, rat plasma): 13.7 mL/min/kg
Cmax (in vivo; iv 10 mg/kg, rat plasma): 10,334 ng/mL
MRT (in vivo; iv 10 mg/kg, rat plasma): 2.28 h
Vss (in vivo; iv 10 mg/kg, rat plasma): 2.67 L/kg
t½ (in vivo; iv 10 mg/kg, rat plasma): 2.29 h
Tmax (in vivo; male, SD, in vivo, po 20 mg/kg, rat plasma): 1 h
bioavailability (in vivo; male, SD, rat, in vivo, po 20 mg/kg vs iv 10 mg/kg, rats, read-out: F (absolute oral bioavailability)): 30%
AUC0- ∞ (in vivo; po 20 mg/kg, rat plasma): 6,240 ng·h/mL
CL (in vivo; po 20 mg/kg, rat plasma): 59.5 mL/min/kg
Cmax (in vivo; po 20 mg/kg, rat plasma): 1,517 ng/mL
MRT (in vivo; po 20 mg/kg, rat plasma): 3.46 h
Vss (in vivo; po 20 mg/kg, rat plasma): 11.54 L/kg
t½ (in vivo; po 20 mg/kg, rat plasma): 2.24 h
increase of viral resistance by mutation NS4B V63L ([1]; P12-VI virus, Huh7 cells): 16 folds
EC50 ([1]; viral reduction assay on Huh7 cells, read-out: EC50 against resistant viruses P12-VI): 2000 nM
EC50 (DENV-2 replicon): 160 nM
EC50 (DENV-4 replicon; Dengue virus, DENV4, Huh-7, 48 h, read-out: EC50 DENV-4): > 5000 nM
EC50 (DENV-3 replicon): 35 nM
EC50 (DENV-1 replicon; Dengue virus, DENV1, Huh-7, 48 h, read-out: EC50 DENV-1): 780 nM
EC50 (DENV-2 strain NGC): ~100 nM
CC50 at 48 h [2]: > 10000 nM

C[C@@H](c1ccc(Cl)cc1)n1nnc2c1NC(=O)C[C@]21C(=O)N(CCOC(=O)CCCCCCCNC(=O)CCCC[C@@H]2SC[C@@H]3NC(=O)N[C@@H]32)c2ccc(Cl)cc21 [Compound 73, 2-((R)-5'-Chloro-3-((S)-1-(4-chlorophenyl)ethyl)-2',5-dioxo-3,4,5,6-tetrahydrospiro[[1,2,3]triazolo[4,5-b]pyridine-7,3'-indolin]-1'-yl)ethyl 8-(5-((3aS,4S,6aR)-2-oxohexahydro-1H-thieno[3,4-d]imidazol-4-yl)pentanamido)octanoate]
EC50 (DENV-2 replicon): 41 nM
activity against DENV-4 (DENV-4 replicon; [4]): no significant activity
EC50 (DENV-3 replicon): 17 nM
pull down of / association with viral NS4B protein [3]: can pull down viral NS4B protein; also recorded: associated with DENV-2 viral NS4B protein
activity against DENV-1 (DENV-1 replicon; [4]): no significant activity

C[C@@H](c1ccc(Cl)cc1)n1nnc2c1NC(=O)C[C@@]21C(=O)N(CCOC(=O)CCCCCCCNC(=O)CCCC[C@@H]2SC[C@@H]3NC(=O)N[C@@H]32)c2ccc(Cl)cc21 [Compound 75, 2-((S)-5'-Chloro-3-((S)-1-(4-chlorophenyl)ethyl)-2',5-dioxo-3,4,5,6-tetrahydrospiro[[1,2,3]triazolo[4,5-b]pyridine-7,3'-indolin]-1'-yl)ethyl 8-(5-((3aS,4S,6aR)-2-oxohexahydro-1H-thieno[3,4-d]imidazol-4-yl)pentanamido)octanoate]
remains active against DENV-2 (DENV-2 replicon; FIG. 1B): not
remains active against DENV-3 (DENV-3 replicon; FIG. 1B): not
pull down of / association with viral NS4B protein [3]: not
